Common to all, as to type: ADME, organism-based
Holding throughout (conditions): in vivo

The nature of data set [1]: Oral bioavailability in mouse at 10 mg/kg by WinNonlin non-compartmental analysis.
Data set [2] can be described thus: AUC in mouse at 10 mg/kg, po by WinNonlin non-compartmental analysis. Further details: dose 10 mg/kg, route po.
The nature of data set [3]: Cmax in mouse at 10 mg/kg, po by WinNonlin non-compartmental analysis. Also on record: dose 10 mg/kg, route po.

Structures are written as SMILES.

Usually bioavailability stands for dose-corrected exposure relative to a reference, in per cent. A lower bioavailability goes with poor availability. As usually defined, the AUC is concentration integrated over time. Usually Cmax stands for the highest concentration seen after dosing.

Consider `CC(C)c1cnc(-c2cc(Cl)ccc2F)cc1Nc1ccncc1C(=O)NC[C@H](C)O`, for which the bioavailability in data set [1] is 33%. In addition, the AUC in data set [2] (read-out: AUC) is 2.54 µM·h. The Cmax in data set [3] was found to be 1880 nM.
Taken in the same sequence, the figures for `CC(C)c1cnc(-c2cc(Cl)ccc2F)cc1Nc1ccncc1C(=O)NC(CO)CO` [PF-06952229] were 87%, 16.2 µM·h and 7070 nM.
The molecule `CC(C)c1cnc(-c2cc(Cl)ccc2F)cc1Nc1ccncc1C(=O)NCCN` showed a bioavailability in data set [1] of 16%. Further, the area under the curve (AUC) in data set [2] (read-out: AUC) amounted to 0.93 µM·h. This molecule registered a maximum concentration (Cmax) in data set [3] of 200 nM.
Take `CC(C)c1cnc(-c2cc(Cl)ccc2F)cc1Nc1ccncc1C(=O)N[C@@H](C)CO`: the F in data set [1] (po, 10 mg/kg) is 88%. Besides, the exposure (AUC) in data set [2] is 5.25 µM·h. In addition, the concentration in data set [3] peaked (Cmax) at 1570 nM.
In the case of `CC(C)c1cnc(-c2cc(Cl)ccc2F)cc1Nc1ccncc1C(=O)NCC(N)=O`, the bioavailability in data set [1] stood at 38%. The area under the curve (AUC) in data set [2] (read-out: AUC) amounted to 1.47 µM·h. Moreover, in data set [3], the Cmax came to 990 nM.

The record behind these values is ChEMBL document CHEMBL5223120 (Bioorg Med Chem Lett, 2022).
